Measurements as given in patent US6316207A, “Mouse cardiac muscle cell line, HL-1” (priority 1999, dated 2001).
Where a name gives a salt, the structure may show the parent alone. Read-outs that look alike come from different tables or passages of the source.

Columns and labels:
[1] = system: IKr in guinea pig myocytes; details: cited from earlier work
[2] = biological target: T1, [^3 H]dofetilide binding site in HL-1 cells (IKr) (Mus musculus, UniProt O35219); assay: biochemical
T1 sequence (O35219 1-1162): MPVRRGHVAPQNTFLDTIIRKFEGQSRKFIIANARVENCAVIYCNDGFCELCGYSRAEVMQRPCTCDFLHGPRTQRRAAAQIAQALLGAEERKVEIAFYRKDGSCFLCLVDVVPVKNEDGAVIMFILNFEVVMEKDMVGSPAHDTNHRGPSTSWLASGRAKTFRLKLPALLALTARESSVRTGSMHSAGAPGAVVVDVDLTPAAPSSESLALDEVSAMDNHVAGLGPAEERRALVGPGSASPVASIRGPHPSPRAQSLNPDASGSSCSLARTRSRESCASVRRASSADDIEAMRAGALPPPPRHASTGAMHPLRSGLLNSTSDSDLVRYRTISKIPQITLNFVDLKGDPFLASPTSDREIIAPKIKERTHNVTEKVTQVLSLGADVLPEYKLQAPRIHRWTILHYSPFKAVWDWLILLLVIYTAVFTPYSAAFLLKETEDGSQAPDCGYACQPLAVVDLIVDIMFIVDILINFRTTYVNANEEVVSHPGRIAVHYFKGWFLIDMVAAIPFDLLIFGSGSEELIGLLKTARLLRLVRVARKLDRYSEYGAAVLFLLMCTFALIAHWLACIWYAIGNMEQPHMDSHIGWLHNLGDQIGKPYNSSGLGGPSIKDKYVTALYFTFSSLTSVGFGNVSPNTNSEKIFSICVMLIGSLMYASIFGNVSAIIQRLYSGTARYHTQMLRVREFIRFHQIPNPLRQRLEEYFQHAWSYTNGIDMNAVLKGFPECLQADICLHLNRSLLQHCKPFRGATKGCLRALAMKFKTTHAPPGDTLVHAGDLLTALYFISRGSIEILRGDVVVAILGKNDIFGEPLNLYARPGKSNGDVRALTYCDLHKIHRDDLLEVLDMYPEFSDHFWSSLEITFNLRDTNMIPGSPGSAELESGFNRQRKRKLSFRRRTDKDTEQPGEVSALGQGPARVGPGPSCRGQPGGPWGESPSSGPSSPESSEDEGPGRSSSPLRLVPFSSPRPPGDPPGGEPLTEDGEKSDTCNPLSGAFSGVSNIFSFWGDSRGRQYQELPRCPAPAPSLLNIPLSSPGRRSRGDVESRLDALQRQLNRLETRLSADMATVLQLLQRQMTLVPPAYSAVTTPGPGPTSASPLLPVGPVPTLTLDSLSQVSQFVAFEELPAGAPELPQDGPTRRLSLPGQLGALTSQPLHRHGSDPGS
Method: HL-1 cells from passages 60 to 80 are dissociated from tissue culture flasks with a 5 min incubation with 0.1% trypsin (Clonetics, San Diego) followed by inactivation in a trypsin neutralizing solution (Clonetics, San Diego). The cells are suspended in a buffer containing (mM) KCl 40, KH2 PO4 20, MgCl2 5, KHCO3 0.5, glucose 10, potassium glutamate5 0, potassium asparate 20, EGTA 1 and HEPES (N-[2-Hydroxyethyl]piperazine-N'-[2-ethanesulfonic acid]) 10, adjusted to pH 7.4 with KOH and containing 0.1% bovine serum albumin (BSA). […] The cells are then filtered on GF/C Unifilter® 96 well filter plates (Packard, Meriden, Conn.) using a Packard Micromate496® harvester. Filter plates are presoaked with wash buffer (25 mM Tris-HCl, 130 mM NaCl, 5.5 mM KCl, 0.8 mM MgCl2 and 50 μM CaCl2 [pH 7.4]) containing 1.0% BSA and washed following harvesting at room temperature with four ×1 ml washes of the same buffer without BSA.

[3] = system: guinea pig myocytes; details: read-out: Kd for [^3 H]dofetilide binding in guinea pig myocytes, mean+/-SD, n=3, Chadwick et al; cited from earlier work
[4] = system: IKr in rabbit ventricular myocytes; details: Carmeliet 1992, read-out: IC50 reported for IKr in rabbit ventricular myocytes; cited from earlier work
[5] = system: [^3 H]dofetilide binding site in guinea pig myocytes; details: cited from earlier work
[6] = system: HL-1 cells; assay: Contractile activity (spontaneous beating) of HL-1 cells; type: cell-based, mouse
Method: CONTRACTILE ACTIVITY OF HL-1 CELLS
HL-1 cells are found to respond to several pharmacological agents in a manner expected for cardiomyocytes. Confluent cultures of HL-1 cells at passage 33 in growth medium (without norepinephrine or retinoic acid) display spontaneous contractile activity (beating).
In other experiments, spontaneously beating confluent HL-1 cells in growth medium are stopped by adding propranolol. First, norepinephrine bitartrate is added to a final concentration of 10^-5 M. Under these stimulated conditions, propranolol is subsequently added.
To determine if the effect of 10^-4 M propranolol is reversible, the culture medium containing propranolol is removed and growth medium (without norepinephrine or retinoic acid) is added to the cell cultures.

In the case of `CN1CCN(CCCCN2C(=O)CN(/N=C/c3ccc(-c4ccc(Cl)cc4)o3)C2=O)CC1` [azimilide dihydrochloride], the IC50 ([1]; Fermini et al 1995, read-out: IC50 for blocking the rapidly activating component of the delayed rectifier IKr) is given as 400 nM and the Kd [2] is given as 800 nM.
For `[3H]c1cc(OCCN(C)CCc2ccc(NS(C)(=O)=O)cc2)ccc1NS(C)(=O)=O` [[^3 H]dofetilide], the Kd [3] is listed as 70 ± 6 nM.
In the case of `CN(CCOc1ccc(NS(C)(=O)=O)cc1)CCc1ccc(NS(C)(=O)=O)cc1` [dofetilide], the IC50 [4] is given as 4 nM, the IC50 ([1]; Jurkiewicz and Sanguinetti 1993, read-out: IC50 reported for IKr in guinea pig myocytes) is given as 31 nM and the Kd ([5]; read-out: Kd, competition for [^3 H]dofetilide binding, Cardiac Myocytes, primary guinea pig myocytes, Chadwick et al, SEM and N in own columns) is given as 100 nM.
In the case of `NC[C@H](O)c1ccc(O)c(O)c1` [norepinephrine bitartrate], the “contractile activity (beating) of HL-1 cells” value ([6]; final concentration 10^-5 M, passage 33, within two minutes, growth medium without norepinephrine or retinoic acid) is reported as “beating faster”.
In the case of `COc1ccc(CCN(C)CCCC(C#N)(c2ccc(OC)c(OC)c2)C(C)C)cc1OC` (centres unmarked) [verapamil hydrochloride], the “contractile activity after addition of drug” value ([6]; final concentrations of 10^-7 M, 10^-6 M and 10^-5 M, growth medium without norepinephrine or retinoic acid) is reported as “no observable contractile activity”.
With `CC(C)NCC(O)COc1cccc2ccccc12` (centres unmarked) [propranolol] the “time to arrest of all contractions” value ([6]; final concentration 10^-4 M, after 10^-5 M norepinephrine bitartrate) was ≤ 10 min, the arrest of contractions ([6]; final concentration 10^-4 M, after stimulation with 10^-5 M norepinephrine bitartrate, within 10 minutes) was “arrests all contractions” and the “effect on contractile activity” value ([6]; final concentrations of 10^-7 M, 10^-6 M, and 10^-5 M, after 10^-5 M norepinephrine bitartrate) was “no observable effect”. For the same compound, the “time to recovery of contractile activity after removal of drug” value ([6]; previously exposed to 10^-4 M (printed 10^31 4 M)) was ≤ 1 h and the “reversibility: contractile activity after removal of drug” value ([6]; previously exposed to 10^-4 M (printed 10^31 4 M), within 1 hour after medium change) was “contractile activity similiar to control HL-1 cell not exposed to propranolol”.
For `CCCCCCC[N+](CC)(CC)CCCCc1ccc(Cl)cc1` [clofilium], the Kd ([5]; cardiac myocytes) is listed as 1290 nM.
